According to US20230271943A1, “COMPOUNDS AS DHODH INHIBITORS” (Nanjing Zenshine Pharmaceuticals Co., Ltd., priority 2020, published 2023):

Experiments:
recombinant human DHODH = recombinant human DHODH (Homo sapiens, UniProt Q02127); experiment: Biochemical enzymatic assay (DCIP bleaching); conditions: DCIP absorbance 600 nm, 60 min RT
Experimental: The biochemical activity of DHODH was measured by the bleaching of the dye 2,6-dichlorophenolindophenol (DCIP) (Knecht W. et al., Biochem. Pharmacol. 1998, 56, 1259-1264). The assay was conducted in buffer containing 50 mM Tris, 150 mM KCI, and 0.1% Triton® X-100 (pH 8.0). 5 ng DHODH protein in 50 µL assay buffer was mixed in a well of 96-well clear assay plate (Corning Cat#3599) with 25 µL series concentration of inhibitor at room temperature for 30mins prior to adding 25 µL substrate solution (1 mM L-Dihydroorotic acid, 0.1 mM Decylubiquinone, 0.06 mM DCIP). After incubation at RT for 60mins, absorbance at 600 nm was obtained using a PerkinElmer multimode plate-reading spectrophotometer. Purified recombinant human DHODH was purchased from R&D systems (Catalog# 10062-DD-020), L-dihydroorotic acid (Sigma, D7128), decylubiquinone (Sigma, D7911), DCIP (Sigma, D1878) and other chemicals were purchased from Sigma-Aldrich.

A/PR/8/34 (H1N1) strain = experiment: Antiviral CPE assay in MDCK cells, A/PR/8/34 (H1N1); assay type: cell-based; conditions: Influenza A virus, 120 h, 5 days, CCK-8, read-out: Activity of anti-A/PR/8/34 (H1N1) EC50
MV-4-11 cells = experiment: MV-4-11 cell proliferation assay (CellTiter-Glo); assay type: cell-based; conditions: Homo sapiens, MV4-11, 72 h, read-out: MV-4-11 Cell Proliferation Assay IC50
Experimental: 5000 cells/well of MV-4-11 cells were seeded in IMDM 10% fetal calf serum (FBS, BI, Catalog#) in 96-well plates. The next day, cells were incubated with different concentrations of test compounds for 72 h. Cellular viability was analyzed using CellTiter-Glo® Luminescent Cell Viability Assay (Promega, #G7570) according to manufacturer’s instructions.

in vitro = conditions: dog
H7N9 strain = experiment: microbe, parasite or virus in culture; assay type: cell-based; conditions: Influenza A virus, H7N9, MDCK, 120 h, read-out: Anti-H7N9 EC50
H1N1(XJ49) strain = experiment: Antiviral CPE assay in MDCK cells, H1N1 (XJ49); assay type: cell-based; conditions: Influenza A virus, H1N1, 120 h, 5 days, CCK-8, read-out: anti-H1N1 (XJ49) EC50
ZIKV strain = experiment: microbe, parasite or virus in culture; assay type: cell-based; conditions: Zika virus, Vero, 72 h, read-out: Activity of anti-ZIKV EC50

Sequence of recombinant human DHODH (Q02127 whole entry): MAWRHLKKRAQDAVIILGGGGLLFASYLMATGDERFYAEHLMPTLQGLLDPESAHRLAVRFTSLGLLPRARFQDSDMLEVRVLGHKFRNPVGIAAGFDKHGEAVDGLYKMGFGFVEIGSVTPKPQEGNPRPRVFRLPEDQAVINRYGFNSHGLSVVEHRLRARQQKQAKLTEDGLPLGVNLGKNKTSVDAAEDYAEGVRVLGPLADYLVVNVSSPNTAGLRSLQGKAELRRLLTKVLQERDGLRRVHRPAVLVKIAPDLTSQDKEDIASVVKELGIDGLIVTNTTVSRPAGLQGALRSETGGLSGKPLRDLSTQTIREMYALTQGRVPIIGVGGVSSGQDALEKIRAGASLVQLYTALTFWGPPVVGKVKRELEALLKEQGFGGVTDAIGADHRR

| Structure (SMILES) | IC50 (recombinant human DHODH) | EC50 (A/PR/8/34 (H1N1) strain) | IC50 (MV-4-11 cells) | CC50 (in vitro) | EC50 (H7N9 strain) | EC50 (H1N1(XJ49) strain) | EC50 (ZIKV strain) |
| --- | --- | --- | --- | --- | --- | --- | --- |
| CCn1c(CO)nn(-c2cc3c(cc2F)c(=O)c(-c2c(F)cccc2Cl)nn3C(C)C(F)(F)F)c1=O (stereo not shown) [Compound 1, 3-(2-chloro-6-fluorophenyl)-7-(4-ethyl-3-(hydroxymethyl)-5-oxo-4,5-dihydro-1H-1,2,4-triazol-1-yl)-6-fluoro-1-(1,1,1-trifluoropropan-2-yl)cinnolin-4(1H)-one] | 215 nM | – | – | – | – | – | – |
| CCn1c(CO)nn(-c2cc3c(cc2F)c(=O)c(-c2c(F)cccc2Cl)nn3C(C)C)c1=O [Compound 2, 3-(2-chloro-6-fluorophenyl)-7-(4-ethyl-3-(hydroxymethyl)-5-oxo-4,5-dihydro-1H-1,2,4-triazol-1-yl)-6-fluoro-1-isopropylcinnolin-4(1H)-one] | 97 nM | 64 nM | 0.09 nM | > 1000 nM | – | – | – |
| CCn1c(CO)nn(-c2cc3c(C(C)C)nn(-c4c(F)cccc4Cl)c(=O)c3cc2F)c1=O [Compound 4, 2-(2-chloro-6-fluorophenyl)-6-(4-ethyl-3-(hydroxymethyl)-5-oxo-4,5-dihydro-1H-1,2,4-triazol-1-yl)-7-fluoro-4-isopropylphthalazin-1(2H)-one] | 11 nM | 23 nM | 0.9 nM | > 1000 nM | 14 nM | 5.7 nM | 0.37 nM |
| CCC(CC)O[C@@H]1C=C(C(=O)O)C[C@H](N)[C@H]1NC(C)=O [Oseltamivir acid, reference compound] | – | […] | – | > 100 nM | – | – | – |
| O=C1c2c(O)c(=O)ccn2N([C@@H]2c3ccccc3SCc3c2ccc(F)c3F)[C@@H]2COCCN12 [Baloxavir, reference compound] | – | 1.1 nM | – | 18 nM | – | – | – |
